Laboratory results published in patent publication US6620828B2, “Thiazole compounds and pharmaceutical compositions for inhibiting protein kinases and methods for their use” (Agouron Pharmaceuticals, Inc., priority 1999, dated 2003).
Read-outs that look alike come from different tables or passages of the source.

Experiments:
[1] = target: T1, phosphorylated VEGF-R2Δ50 (FLVK-P) (Homo sapiens, UniProt P35968, DEL940-989/E990V); assay: VEGF-R2 coupled spectrophotometric (FLVK-P) assay; type: biochemical; details: Table 1; for Ki: spectrophotometric assay; for FLVK-P % inhibition @ 50: at 50, concentration unit not printed (head nM)
T1 construct: VEGF-R2Δ50 contains residues 806-939 and 990-1171; made in house; host or cells: baculovirus/insect cells
Text: VEGF-R2 Construct for Assay: This construct determines the ability of a test compound to inhibit tyrosine kinase activity. A construct (VEGF-R2Δ50) of the cytosolic domain of human vascular endothelial growth factor receptor 2 (VEGF-R2) lacking the 50 central residues of the 68 residues of the kinase insert domain was expressed in a baculovirus/insect cell system. Of the 1356 residues of full-length VEGF-R2, VEGF-R2Δ50 contains residues 806-939 and 990-1171, and also one point mutation (E990V) within the kinase insert domain relative to wild-type VEGF-R2. Autophosphorylation of the purified construct was performed by incubation of the enzyme at a concentration of 4 μM in the presence of 3 mM ATP and 40 mM MgCl2 in 100 mM Hepes, pH 7.5, containing 5% glycerol and 5 mM DTT, at 4° C. for 2 h. […] See Parast et al., Biochemistry, 37, 16788-16801 (1998).
Coupled Spectrophotometric (FLVK-P) Assay
The production of ADP from ATP that accompanies phosphoryl transfer was coupled to oxidation of NADH using phosphoenolpyruvate (PEP) and a system having pyruvate kinase (PK) and lactic dehydrogenase (LDH). The oxidation of NADH was monitored by following the decrease of absorbance at 340 nm (e340=6.22 cm^−1 mM^−1) using a Beckman DU 650 spectrophotometer. Assay conditions for phosphorylated VEGF-R2Δ50 (indicated as FLVK-P in the tables below) were the following: 1 mM PEP; 250 μM NADH; 50 units of LDH/mL; 20 units of PK/mL; 5 mM DTT; 5.1 mM poly(E4Y1); 1 mM ATP; and 25 mM MgCl2 in 200 mM Hepes, pH 7.5. Assay conditions for unphosphorylated VEGF-R2Δ50 (indicated as FLVK in the tables) were the following: 1 mM PEP; 250 μM NADH; 50 units of LDH/mL; 20 units of PK/mL; 5 mM DTT; 20 mM poly(E4Y1); 3 mM ATP; and 60 mM MgCl2 and 2 mM MnCl2 in 200 mM Hepes, pH 7.5. Assays were initiated with 5 to 40 nM of enzyme. Ki values were determined by measuring enzyme activity in the presence of varying concentrations of test compounds. The data were analyzed using Enzyme Kinetic and Kaleidagraph software.

[2] = tested on: human umbilical vein endothelial cells (HUVEC); assay: HUVEC proliferation assay; type: cell-based; details: Homo sapiens, HUVEC; for inhibition at 0.001 µM: 1 nM; for inhibition at 0.01 µM: 10 nM; for inhibition at 0.05 µM: 50 nM; for inhibition at 0.15 µM: Table I screening results, 150 nM
In short: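 Exponentially growing HUVEC were serum-starved 24 h (F12K + 1% FBS), pre-treated 1 h with compound (0.1% DMSO final), then stimulated with 6 ng/ml VEGF. Proliferation was read 72 h later by MTT reduction (A595). IC50 came from seven 0.5-log concentrations in triplicate; screens gave % inhibition relative to VEGF-only and starved wells.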

[3] = table following Table II (untitled), crude combinatorial library
[4] = table following Table II (untitled), crude combinatorial library, read-out: % inhibition @ 10 nM
[5] = Inhibition of HUVEC Proliferation, crude combinatorial urea library, read-out: Inhibition @ 50 nM
[6] = Inhibition of HUVEC Proliferation, crude combinatorial urea library, read-out: % inhibition @ 50 nM
[7] = crude combinatorial amide library
[8] = crude combinatorial urea library, read-out: Inhibition of HUVEC Proliferation % inhibition @ 10 nM
[9] = crude combinatorial urea library, read-out: Inhibition of HUVEC Proliferation % inhibition @ 50 nM
[10] = Table II screening results, crude combinatorial amide library
[11] = Table II screening results, crude combinatorial amide library, read-out: % inhibition @ 10 nM

T1 sequence (P35968 with tags, fused parts or gaps DEL940-989/E990V limits assumed): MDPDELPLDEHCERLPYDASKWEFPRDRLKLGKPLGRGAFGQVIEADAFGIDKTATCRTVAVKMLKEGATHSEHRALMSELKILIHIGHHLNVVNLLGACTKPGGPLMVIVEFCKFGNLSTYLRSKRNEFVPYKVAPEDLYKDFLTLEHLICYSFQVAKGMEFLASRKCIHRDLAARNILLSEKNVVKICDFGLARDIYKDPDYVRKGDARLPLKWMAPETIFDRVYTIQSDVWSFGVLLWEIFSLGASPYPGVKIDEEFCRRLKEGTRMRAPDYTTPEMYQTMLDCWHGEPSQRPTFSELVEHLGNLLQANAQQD

## COc1cc(Nc2nc(N)c(-c3nc(-c4cccc(NC(=O)CCc5ccccc5)c4)cs3)s2)cc(OC)c1OC [D(16), N-{3-[4′-Amino-2′-(3,4,5-trimethoxy-phenylamino)-[2,5′]bithiazolyl-4-yl]-phenyl}-3-phenyl-propionamide]
[1]
  Ki: 11.8 nM

## COc1cc(Nc2nc(N)c(-c3nc(-c4cccc(NC(=O)c5cccc(Cl)n5)c4)cs3)s2)cc(OC)c1OC [D(54), 6-Chloro-pyridine-2-carboxylic acid {3-[4′-amino-2′-(3,4,5-trimethoxy-phenylamino)-[2,5′]bithiazolyl-4-yl]-phenyl}-amide]
[1]
  Ki: 6.3 nM

## CC(=O)Nc1nc(N)c(-c2nc(-c3cccc(NC(=O)c4cccc(Cl)c4)c3)no2)s1 [F(4), N-{3-[5-(2-Acetylamino-4-amino-thiazol-5-yl)-[1,2,4]oxadiazol-3-yl]-phenyl}-3-chloro-benzamide]
[1]
  FLVK-P % inhibition @ 50: 33% @

## Nc1nc(Nc2cccnc2)sc1-c1nc(-c2cccc(NC(=O)c3cccc(Cl)c3)c2)no1 [D(52), 3-[3-(3-Chlorobenzamido)phenyl]-5-[2-(3-aminopyridyl)-4-amino-5-thiazolyl]-1,2,4-oxadiazole]
[1]
  FLVK-P % inhibition @ 50: 27% @

## COc1cc(Nc2nc(N)c(-c3nc(-c4cccc(NC(=O)c5ccc(F)cc5)c4)cs3)s2)cc(OC)c1OC [D(28), N-{3-[4′-Amino-2′-(3,4,5-trimethoxy-phenylamino)-[2,5′]bithiazolyl-4-yl]-phenyl}-4-fluoro-benzamide]
[1]
  Ki: 6 nM

## COc1cccc(C(=O)Nc2ccc(C)c(-c3noc(-c4sc(Nc5cc(OC)c(OC)c(OC)c5)nc4N)n3)c2)c1 [drawing 1122]
[2]; [3]
  inhibition at 0.001 µM: 35%
[2]; [4]
  inhibition at 0.01 µM: 94%

## COc1cc(Nc2nc(N)c(-c3nc(-c4cc(NC(=O)CSC(=S)N(C)C)ccc4C)no3)s2)cc(OC)c1OC
[2]; [3]
  inhibition at 0.001 µM: 6%
[2]; [4]
  inhibition at 0.01 µM: -7%

## COc1cccc(C(=O)Nc2cc(-c3noc(-c4sc(NC(=O)NCCCN5CCN(C)CC5)nc4N)n3)c(F)cc2F)c1
[2]; [5]
  inhibition at 0.05 µM: 72%

## COc1cccc(C(=O)Nc2cc(-c3csc(-c4sc(NC(=O)NCP(=O)(O)O)nc4N)n3)c(F)cc2F)c1
[2]; [6]
  inhibition at 0.05 µM: 48%

## COc1cc(Nc2nc(N)c(-c3nc(-c4cccc(NC(=O)[C@@H]5C[C@H]5c5ccccc5)c4)cs3)s2)cc(OC)c1OC
[2]; [7]
  inhibition at 0.15 µM: -4%

## COc1cccc(C(=O)Nc2cccc(-c3csc(-c4sc(NC(=O)NCC(F)(F)F)nc4N)n3)c2)c1
[2]; [8]
  inhibition at 0.01 µM: 20%
[2]; [9]
  inhibition at 0.05 µM: 15%

## COCCNC(=O)Nc1nc(N)c(-c2nc(-c3cccc(NC(=O)c4cccc(OC)c4)c3)cs2)s1
[2]; [8]
  inhibition at 0.01 µM: 35%
[2]; [9]
  inhibition at 0.05 µM: 32%

## COc1cc(Nc2nc(N)c(-c3nc(-c4cc(NC(=O)C[C@@H]5OC(C)(C)OC5=O)ccc4C)no3)s2)cc(OC)c1OC
[2]; [3]
  inhibition at 0.001 µM: -2%
[2]; [4]
  inhibition at 0.01 µM: 3%

## COc1cccc(C(=O)Nc2cc(-c3csc(-c4sc(NC(=O)NCC(C)(C)N)nc4N)n3)c(F)cc2F)c1
[2]; [6]
  inhibition at 0.05 µM: 73%

## CCN(CC)CCNC(=O)Nc1nc(N)c(-c2nc(-c3cccc(NC(=O)c4cccc(OC)c4)c3)cs2)s1
[2]; [8]
  inhibition at 0.01 µM: -38%
[2]; [9]
  inhibition at 0.05 µM: 39%

## COc1cccc(C(=O)Nc2cccc(-c3csc(-c4sc(NC(=O)NCCS(=O)(=O)O)nc4N)n3)c2)c1
[2]; [8]
  inhibition at 0.01 µM: 45%
[2]; [9]
  inhibition at 0.05 µM: 46%

## CNC(=O)Nc1nc(N)c(-c2nc(-c3cccc(NC(=O)CCc4ccc(C)cc4)c3)cs2)s1
[2]; [10]
  inhibition at 0.001 µM: 2%

## COc1cc(Nc2nc(N)c(-c3nc(-c4cccc(NC(=O)c5ccc6ncccc6c5)c4)cs3)s2)cc(OC)c1OC
[2]; [7]
  inhibition at 0.15 µM: 26%

## COc1cccc(C(=O)Nc2cccc(-c3csc(-c4sc(NC(=O)NCCNC(C)=O)nc4N)n3)c2)c1
[2]; [8]
  inhibition at 0.01 µM: 20%
[2]; [9]
  inhibition at 0.05 µM: 77%

## CNC(=O)Nc1nc(N)c(-c2nc(-c3cccc(NC(=O)C4CC(=O)OC4(C)C)c3)cs2)s1 (stereo not drawn)
[2]; [10]
  inhibition at 0.001 µM: 2%
[2]; [11]
  inhibition at 0.01 µM: -10%

## COc1cc(Nc2nc(N)c(-c3nc(-c4cc(NC(=O)c5ccc(C(C)(C)C)o5)ccc4C)no3)s2)cc(OC)c1OC
[2]; [3]
  inhibition at 0.001 µM: -9%
[2]; [4]
  inhibition at 0.01 µM: 48%

## COc1cc(Nc2nc(N)c(-c3nc(-c4cccc(NC(=O)/C=C/c5ccccn5)c4)cs3)s2)cc(OC)c1OC
[2]; [7]
  inhibition at 0.15 µM: -7%

## CNC(=O)Nc1nc(N)c(-c2nc(-c3cccc(NC(=O)C(O)c4ccccc4)c3)cs2)s1 (stereo not drawn)
[2]; [10]
  inhibition at 0.001 µM: -14%
[2]; [11]
  inhibition at 0.01 µM: -11%

## COc1cccc(C(=O)Nc2cccc(-c3csc(-c4sc(NC(=O)NCCc5ccc(N)cc5)nc4N)n3)c2)c1
[2]; [8]
  inhibition at 0.01 µM: -3%
[2]; [9]
  inhibition at 0.05 µM: 3%

## CNC(=O)CNC(=O)Nc1nc(N)c(-c2nc(-c3cc(NC(=O)c4cccc(OC)c4)c(F)cc3F)no2)s1
[2]; [5]
  inhibition at 0.05 µM: 51%

## COc1cc(Nc2nc(N)c(-c3nc(-c4cccc(NC(=O)CC5CCCCC5)c4)cs3)s2)cc(OC)c1OC
[2]; [7]
  inhibition at 0.15 µM: 3%

## COc1cc(Nc2nc(N)c(-c3nc(-c4cc(NC(=O)C5CCSCN5C)ccc4C)no3)s2)cc(OC)c1OC (stereo not drawn)
[2]; [3]
  inhibition at 0.001 µM: 14%
[2]; [4]
  inhibition at 0.01 µM: 29%

## COc1ccc(CCC(=O)Nc2cccc(-c3csc(-c4sc(Nc5cc(OC)c(OC)c(OC)c5)nc4N)n3)c2)cc1OC
[2]; [7]
  inhibition at 0.15 µM: 23%

## COc1cc(Nc2nc(N)c(-c3nc(-c4cc(NC(=O)c5ccccc5)ccc4C)no3)s2)cc(OC)c1OC
[2]; [3]
  inhibition at 0.001 µM: 25%
[2]; [4]
  inhibition at 0.01 µM: 111%

## COc1cc(Nc2nc(N)c(-c3nc(-c4cccc(NC(=O)CC56CC7CC8CC(C5)C8(C7)C6)c4)cs3)s2)cc(OC)c1OC (stereo not drawn)
[2]; [7]
  inhibition at 0.15 µM: 8%

## COc1cc(Nc2nc(N)c(-c3nc(-c4cccc(NC(=O)CNC(=O)c5ccccc5)c4)cs3)s2)cc(OC)c1OC
[2]; [7]
  inhibition at 0.15 µM: -26%

## COc1cccc(C(=O)Nc2cc(-c3noc(-c4sc(NC(=O)NCC(F)(F)F)nc4N)n3)c(F)cc2F)c1
[2]; [5]
  inhibition at 0.05 µM: 89%

## COc1cc(Nc2nc(N)c(-c3nc(-c4cccc(NC(=O)CCC5CCCC5)c4)cs3)s2)cc(OC)c1OC
[2]; [7]
  inhibition at 0.15 µM: 85%

## CCN(CC)CCCNC(=O)Nc1nc(N)c(-c2nc(-c3cccc(NC(=O)c4cccc(OC)c4)c3)cs2)s1
[2]; [8]
  inhibition at 0.01 µM: -7%
[2]; [9]
  inhibition at 0.05 µM: 45%

## COc1cccc(C(=O)Nc2cc(-c3noc(-c4sc(NC(=O)NCCC(=O)O)nc4N)n3)c(F)cc2F)c1
[2]; [5]
  inhibition at 0.05 µM: 56%

## COc1cc(Nc2nc(N)c(-c3nc(-c4cccc(NC(=O)c5ccc(C(=O)C(F)(F)F)cc5)c4)cs3)s2)cc(OC)c1OC
[2]; [7]
  inhibition at 0.15 µM: 26%

## COc1cccc(C(=O)Nc2cc(-c3csc(-c4sc(NC(=O)NCc5ccc(N)cc5)nc4N)n3)c(F)cc2F)c1
[2]; [6]
  inhibition at 0.05 µM: 83%

## COc1cc(Nc2nc(N)c(-c3nc(-c4cc(NC(=O)Cc5c(F)cccc5F)ccc4C)no3)s2)cc(OC)c1OC
[2]; [3]
  inhibition at 0.001 µM: -23%
[2]; [4]
  inhibition at 0.01 µM: 42%
